# According to patent US5945329A, “Customized proteases” (Carlsberg A/S, priority 1997, dated 1999):
# Substitutions are numbered along the chain they refer to.
# Columns and labels:
# [1] = molecular target: T1, yeast carboxypeptidase Y (CPD-Y), wild type (SEQ ID NO:32) (Saccharomyces cerevisiae, UniProt P00729); assay: Aminolysis of ester/peptide substrates; KN(app) of nucleophile; type: biochemical; conditions: for Kn,app (H-Val-NH2 as nucleophile): Table VI, substance of the line is the substrate (leaving group varied); for Kn,app: Table V, FA-Ala-OBzl as substrate
# T1 construct: purchased Carlbiotech, Copenhagen, Denmark
# T1 sequence (P00729 112-532): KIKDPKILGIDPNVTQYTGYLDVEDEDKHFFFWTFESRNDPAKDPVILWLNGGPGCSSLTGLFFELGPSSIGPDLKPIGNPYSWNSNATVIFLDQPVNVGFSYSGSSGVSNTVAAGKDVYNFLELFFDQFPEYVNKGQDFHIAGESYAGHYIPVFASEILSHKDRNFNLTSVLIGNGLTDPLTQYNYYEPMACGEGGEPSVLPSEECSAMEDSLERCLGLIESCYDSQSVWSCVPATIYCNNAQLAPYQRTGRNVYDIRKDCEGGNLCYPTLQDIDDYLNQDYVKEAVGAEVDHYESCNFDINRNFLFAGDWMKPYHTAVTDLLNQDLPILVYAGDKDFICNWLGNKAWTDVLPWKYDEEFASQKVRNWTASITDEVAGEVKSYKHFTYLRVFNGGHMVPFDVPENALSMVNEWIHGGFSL
# Experimental: (§1) Aminolysis reactions were carried out in the following way. The nucleophile was dissolved in 50 mM Hepes, 5 mM EDTA and pH was adjusted to 7.5. Five (5) μl of substrate (8 mM FA-Ala-OBzl in methanol) was added to 190 μl nucleophile solution followed by 5 μl enzyme, resulting in a substrate concentration of 0.2 mM. For reactions carried out at pH 9.5, Hepes was replaced with Ches. During the reaction, 20 μl aliquots were removed from the reaction mixture and added to 50 μl 1% trifluoroacetic acid to quench the reaction. The reactant composition was determined by HPLC using a Waters HPLC equipped with a C-18 Waters Novapac 4μ reverse phase column and various gradients of acetonitrile in 0.1% trifluoroacetic acid. The separation was monitored at 302 nm allowing the direct quantification of the products from the integrated peak areas. The composition of the reaction mixture was determined at least twice during the reaction, the first time when 20-50% (preferably 35%) of the ester substrate had been consumed in the reaction and the second time when 50-90% (preferably 80%) of the substrate had been consumed. The products were collected and identified by amino acid analysis after acid hydrolysis using a Pharmacia Alpha Plus analyzer.
# (§2) Further identification was obtained by co-chromatography of authentic standard compounds. The fraction of aminolysis (fa) was expressed as the ratio between the formed aminolysis product and the sum of all products being formed, i.e., unconsumed substrate was disregarded in the calculations. The KN(app), representing the nucleophile concentration at which fa is half the maximum value (a measure for the dissociation constant of the nucleophile), and famax (the highest possible fa obtained at saturation of the enzyme with nucleophile) were determined by fitting the values of fa obtained at a minimum of seven concentrations of nucleophile to a saturation. The value of fa obtained at the highest possible nucleophile concentration is designated fasat.
# (§3) Aminolysis reactions were carried out in the following way. The nucleophile was dissolved in 50 mM HEPES, 5 mM EDTA and pH was adjusted to 7.5, 5 μl substrate (8 mM FA-Ala-OBzl or FA-Ala-Xaa-OH in methanol) was added to 190 μl nucleophile solution followed by 5 μl enzyme diluted in buffer to the appropriate concentration, resulting in a substrate concentration of 0.2 mM. During the reaction, 20 μl aliquots were removed from the reaction mixture and added to 50 μl 1% trifluoroacetic acid to quench the reaction. The reactant composition was determined by HPLC using a Waters HPLC equipped with a C-18 Waters Novapac 4μ reverse phase column and various gradients of acetonitrile in 0.1% trifluoroacetic acid. The separation was monitored at 302 nm allowing the direct quantification of the products from the integrated peak areas. The products were collected and identified by amino acid analysis after acid hydrolysis (Pharmacia Alpha Plus analyzer) and by co-chromatography of authentic standards. The fraction of aminolysis (fa) was expressed as the ratio between the formed aminolysis product and the sum of all products being formed, i.e. unconsumed substrate was disregarded in the calculations. The KN,app (a measure for the dissociation constant of the nucleophile) and famax (the highest possible fa obtained at saturation with nucleophile were determined by fitting the obtained fa values to the equation fa=famax /(1+KN,app /N).
# [2] = molecular target: T2, carboxypeptidase Y (CPD-Y) variant E65A (Glu65 replaced by alanine) (Saccharomyces cerevisiae, UniProt P00729, E176A); assay: Aminolysis; KN(app) of nucleophile; type: biochemical, yeast; conditions: pH 7.5; for Kn,app (H-Val-NH2 as nucleophile): Table VI, substance of the line is the substrate (leaving group varied)
# T2 construct: made in house; host or cells: S. cerevisiae W2579 (secreted)
# Experimental: as §1, §2, §3
# [3] = molecular target: T3, carboxypeptidase Y (CPD-Y) variant N51Q (Asn51 replaced with glutamine) (Saccharomyces cerevisiae, UniProt P00729, N162Q); assay: Aminolysis; KN(app) of nucleophile; type: biochemical, yeast; conditions: for Kn,app (H-Val-NH2 as nucleophile): Table VI, substance of the line is the substrate (leaving group varied); for Kn,app (H-Val-NH2 as nucleophile) / Kn,app: pH 7.5; for KN(app): Table III (unit as in Tables I, II), ester substrate; for KN(app) / Kn,app: amino acid nucleophile; for Kn,app: Table V, FA-Ala-OBzl as substrate
# T3 construct: made in house; host or cells: S. cerevisiae W2579 (secreted)
# T3 sequence (P00729 112-532 N162Q): T1 sequence (P00729 112-532) with N51Q
# Experimental: as §1, §2, §3
# [4] = molecular target: T4, carboxypeptidase Y (CPD-Y) variant N51S (Asn51 replaced with serine) (Saccharomyces cerevisiae, UniProt P00729, N162S); assay: Aminolysis; KN(app) of nucleophile; type: biochemical, yeast; conditions: Table VI; substance of the line is the substrate (leaving group varied), pH 7.5
# T4 construct: made in house; host or cells: S. cerevisiae W2579 (secreted)
# T4 sequence (P00729 112-532 N162S): T1 sequence (P00729 112-532) with N51S
# Experimental: as §1, §2, §3
# [5] = molecular target: T5, carboxypeptidase Y (CPD-Y) variant E145A (Glu145 replaced by alanine) (Saccharomyces cerevisiae, UniProt P00729, E256A); assay: Aminolysis; KN(app) of nucleophile; type: biochemical, yeast; conditions: pH 7.5; for Kn,app (H-Val-NH2 as nucleophile): Table VI, substance of the line is the substrate (leaving group varied); for Kn,app: Table V, amino acid nucleophile, FA-Ala-OBzl as substrate
# T5 construct: made in house; host or cells: S. cerevisiae W2579 (secreted)
# Experimental: as §1, §2, §3
# [6] = molecular target: T1, yeast carboxypeptidase Y (CPD-Y), wild type (SEQ ID NO:32); assay: Hydrolysis of FA-Phe-Val-OH; type: biochemical
# [7] = molecular target: CBZ-Gly-Leu-OH
# [8] = molecular target: CBZ-His-Leu-OH
# [9] = molecular target: CBZ-Pro-Leu-OH
# [10] = molecular target: CBZ-Trp-Leu-OH
# [11] = molecular target: CBZ-Ala-Leu-OH
# [12] = molecular target: CBZ-Glu-Leu-OH
# [13] = molecular target: CBZ-Lys-Leu-OH
# [14] = molecular target: CBZ-Phe-Leu-OH
# [15] = molecular target: CBZ-Ser-Leu-OH
# [16] = molecular target: FA-Ala-Ala-OH
# [17] = molecular target: FA-Ala-Leu-OH
# [18] = molecular target: FA-Ala-Phe-OH
# [19] = molecular target: FA-Ala-Val-OH
# [20] = molecular target: FA-Phe-Val-OH
# [21] = Table II, amino acid nucleophile, substrate FA-Ala-OBzl, pH 7.5
# [22] = Table III (unit as in Tables I, II), amino acid nucleophile, ester substrate
# T5 sequence (P00729 112-532 E256A): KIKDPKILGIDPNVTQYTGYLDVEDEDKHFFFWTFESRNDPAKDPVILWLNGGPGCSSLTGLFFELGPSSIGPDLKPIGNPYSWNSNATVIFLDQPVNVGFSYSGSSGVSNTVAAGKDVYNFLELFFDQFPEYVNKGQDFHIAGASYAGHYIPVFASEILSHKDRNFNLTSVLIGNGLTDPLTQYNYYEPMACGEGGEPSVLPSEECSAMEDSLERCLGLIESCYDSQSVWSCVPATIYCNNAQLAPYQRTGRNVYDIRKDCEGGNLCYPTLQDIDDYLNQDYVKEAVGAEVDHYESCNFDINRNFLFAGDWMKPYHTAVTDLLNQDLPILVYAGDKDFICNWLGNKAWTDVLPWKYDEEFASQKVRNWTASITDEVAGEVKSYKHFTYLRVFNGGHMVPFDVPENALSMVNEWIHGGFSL
# T2 sequence (P00729 112-532 E176A): as the sequence (P00729 112-532 E256A) above, with E65A, A145E counted along it
compound,measurement,setting,value
"C[C@H](NC(=O)[C@H](C)NC(=O)C=Cc1ccco1)C(=O)O [FA--Ala--Ala--OH, FA-Ala-Ala-OH]","Kn,app (H-Val-NH2 as nucleophile)",[1]; pH 7.5,1.8 ± 0.1 mM
same,"Kn,app (H-Val-NH2 as nucleophile)",[2],5.2 ± 0.5 mM
same,"Kn,app (H-Val-NH2 as nucleophile)",[3],3.1 ± 0.1 mM
same,"Kn,app (H-Val-NH2 as nucleophile)",[4],1.9 ± 0.1 mM
"CC(C)C[C@H](NC(=O)[C@H](C)NC(=O)C=Cc1ccco1)C(=O)O [FA--Ala--Leu--OH, FA-Ala-Leu-OH]","Kn,app (H-Val-NH2 as nucleophile)",[1]; pH 7.5,1.6 ± 0.1 mM
same,"Kn,app (H-Val-NH2 as nucleophile)",[5],4.1 ± 0.1 mM
same,"Kn,app (H-Val-NH2 as nucleophile)",[2],5.2 ± 0.1 mM
same,"Kn,app (H-Val-NH2 as nucleophile)",[3],2.4 ± 0.1 mM
"C[C@H](NC(=O)C=Cc1ccco1)C(=O)OCc1ccccc1 [FA--Ala--OBzl, FA-Ala-OBzl]","Kn,app (H-Val-NH2 as nucleophile)",[1]; pH 7.5,1.7 ± 0.1 mM
same,"Kn,app (H-Val-NH2 as nucleophile)",[5],3.4 ± 0.4 mM
same,"Kn,app (H-Val-NH2 as nucleophile)",[2],4.2 ± 0.01 mM
same,"Kn,app (H-Val-NH2 as nucleophile)",[3],3.1 ± 0.4 mM
same,"Kn,app (H-Val-NH2 as nucleophile)",[4],1.6 ± 0.1 mM
"C[C@H](NC(=O)C=Cc1ccco1)C(=O)N[C@@H](Cc1ccccc1)C(=O)O [FA--Ala--Phe--OH, FA-Ala-Phe-OH]","Kn,app (H-Val-NH2 as nucleophile)",[1]; pH 7.5,1.1 ± 0.1 mM
same,"Kn,app (H-Val-NH2 as nucleophile)",[5],4.1 ± 0.1 mM
same,"Kn,app (H-Val-NH2 as nucleophile)",[2],4.7 ± 0.1 mM
same,"Kn,app (H-Val-NH2 as nucleophile)",[3],3.1 ± 0.1 mM
"CC(C)[C@H](NC(=O)[C@H](C)NC(=O)C=Cc1ccco1)C(=O)O [FA--Ala--Val--OH, FA-Ala-Val-OH]","Kn,app (H-Val-NH2 as nucleophile)",[1]; pH 7.5,1.5 ± 0.1 mM
same,"Kn,app (H-Val-NH2 as nucleophile)",[5],4.2 ± 0.2 mM
same,"Kn,app (H-Val-NH2 as nucleophile)",[2],5.7 ± 0.3 mM
same,"Kn,app (H-Val-NH2 as nucleophile)",[3],2.4 ± 0.1 mM
same,"Kn,app (H-Val-NH2 as nucleophile)",[4],1.8 ± 0.1 mM
CC(C)[C@H](NC(=O)[C@H](Cc1ccccc1)NC(=O)C=Cc1ccco1)C(=O)O [FA-Phe-Val-OH],kcat,[6],108.3 s⁻¹
same,kcat /KM,[6],2.33333e+06 M⁻¹ s⁻¹
"CC(C)C[C@H](N)C(=O)O [H--Leu--OH, H-Leu-OH]",KN(app),[1]; [21],10 ± 0.8 mM
same,KN(app),[1]; [22],10 ± 1 mM
same,"Kn,app","[1]; amino acid nucleophile, pH 7.5",10 ± 1 mM
same,"Kn,app",[5],40 ± 2 mM
same,KN(app),[3],42 ± 1 mM
same,"Kn,app",[3],42 ± 1 mM
"CC(C)[C@H](N)C(=O)O [H--Val--OH, H-Val-OH]",KN(app),"[1]; Table I, amino acid nucleophile, substrate FA-Ala-OBzl 0.2 mM, pH 7.5",13 ± 1 mM
same,KN(app),[1]; [21],13 ± 1 mM
same,KN(app),[1]; [22],13 ± 1 mM
same,"Kn,app","[1]; amino acid nucleophile, pH 7.5",13 ± 1 mM
same,KN(app),"[1]; nucleophile with substrate FA-Ala-OBzl, pH 7.5",13 mM
same,"Kn,app",[5],79 ± 6 mM
same,"Kn,app","[2]; Table V, amino acid nucleophile, FA-Ala-OBzl as substrate",69 ± 2 mM
same,KN(app),[3],61 ± 3 mM
same,"Kn,app",[3],61 ± 2 mM
carboxypeptidase Y mutant 178Ser (enzyme),estimated CPD-Y activity relative to wild type transformants (fold of wild type),[7],1.1
same,estimated CPD-Y activity relative to wild type transformants (fold of wild type),[8],1.1
same,estimated CPD-Y activity relative to wild type transformants (fold of wild type),[9],1.8
same,estimated CPD-Y activity relative to wild type transformants (fold of wild type),[10],1.2
same,kcat/Km of hydrolysis,[11],80000 M⁻¹ s⁻¹
same,kcat/Km of hydrolysis,[12],12000 M⁻¹ s⁻¹
same,kcat/Km of hydrolysis,[13],61700 M⁻¹ s⁻¹
same,kcat/Km of hydrolysis,[14],3.33e+06 M⁻¹ s⁻¹
same,kcat/Km of hydrolysis,[15],100000 M⁻¹ s⁻¹
carboxypeptidase Y mutant 178Ser/215Ala/216Pro (enzyme),estimated CPD-Y activity relative to wild type transformants (fold of wild type),[7],0.6
same,estimated CPD-Y activity relative to wild type transformants (fold of wild type),[8],0.9
same,estimated CPD-Y activity relative to wild type transformants (fold of wild type),[9],2.8
same,estimated CPD-Y activity relative to wild type transformants (fold of wild type),[10],1.9
same,kcat/Km of hydrolysis,[11],40000 M⁻¹ s⁻¹
same,kcat/Km of hydrolysis,[12],8330 M⁻¹ s⁻¹
same,kcat/Km of hydrolysis,[13],36700 M⁻¹ s⁻¹
same,kcat/Km of hydrolysis,[14],1.83e+06 M⁻¹ s⁻¹
same,kcat/Km of hydrolysis,[15],50000 M⁻¹ s⁻¹
carboxypeptidase Y mutant E65A (enzyme),famax of transpeptidation (nucleophile H-Val-NH2),[16],0.96
same,famax of transpeptidation (nucleophile H-Val-NH2),[17],0.71
same,famax of transpeptidation (nucleophile H-Val-NH2),[18],0.66
same,famax of transpeptidation (nucleophile H-Val-NH2),[19],0.67
carboxypeptidase Y mutant E145A (enzyme),famax of transpeptidation (nucleophile H-Val-NH2),[17],0.65
same,famax of transpeptidation (nucleophile H-Val-NH2),[18],0.49
same,famax of transpeptidation (nucleophile H-Val-NH2),[19],0.8
carboxypeptidase Y mutant N51Q (enzyme),famax of transpeptidation (nucleophile H-Val-NH2),[16],0.98
same,famax of transpeptidation (nucleophile H-Val-NH2),[17],0.8
same,famax of transpeptidation (nucleophile H-Val-NH2),[18],0.77
same,famax of transpeptidation (nucleophile H-Val-NH2),[19],0.91
same,kcat/KM of hydrolysis,[20],300000 M⁻¹ s⁻¹
carboxypeptidase Y mutant N51S (enzyme),famax of transpeptidation (nucleophile H-Val-NH2),[16],0.88
same,famax of transpeptidation (nucleophile H-Val-NH2),[19],0.13
same,kcat/KM of hydrolysis,[20],800000 M⁻¹ s⁻¹
